Values after ≈ are worked out from the molar mass of the structure shown. Read-outs that look alike come from different tables or passages of the source.

Data on five compounds can be found in paper PMC9186351, “Discovery of N-quinazolinone-4-hydroxy-2-quinolone-3-carboxamides as DNA gyrase B-targeted antibacterial agents” (Journal of Enzyme Inhibition and Medicinal Chemistry, 2022).

The target of one data set is S. aureus DNA gyrase. The settings on record: Figure 1; cited from earlier work.
Data set [1] in a line: Cytotoxicity, SRB assay, HepG2. The format is cell-based, human. The settings on record: human, HepG2 cells, read-out: CC50 for HepG2 cells (positive control). The method, then:
(§1) Cytotoxicity in terms of CC50 was determined by the SRB assay according to the protocol described in our previous publication.[16] Briefly, human HUVECs or HepG2 cells were seeded in the wells of 96-well plates at a concentration of 1 × 10^5 cells per well and incubated at 37 °C for 24 h. […] The cells were fixed with 10% trichloroacetic acid (w/v) at 4 °C for 1 h, washed five times with distilled water, and stained with 0.4% SRB solution at room temperature for another 20 min. The cells were then washed five times with 1% acetic acid and air-dried. The protein-bound dye was dissolved in 10 mM Tris-base solution and shaken for 5 min. The optical density (OD) was measured at 540 nm using a microplate reader to estimate the cell viability (%). With the viability values (%) of the cells treated by the compound at different concentrations as input, the CC50 value was determined by the non-linear regression with normalised dose-response fit implemented in GraphPad Prism version 5 software (GraphPad Software Inc., La Jolla, CA). The experiment was performed in duplicate, and paclitaxel was used as the positive drug for this assay.
In general terms: The SRB assay estimates cell density from bound dye.

The nature of data set [2]: Cytotoxicity, SRB assay, HUVEC. The format is cell-based, human. To be noted: human, HUVEC cells, read-out: CC50 for HUVECs (positive control). The method, then:
as §1

The test system of data set [3] is vancomycin intermediate resistant S. aureus (VISA). In words: MIC by broth microdilution, VISA strains. The format is cell-based. The method, then: (§2) All of the bacterial strains used in this study were obtained from the Collection Centre of Pathogen Microorganism of Chinese Academy of Medical Sciences (CAMS-CCPM-A) in China. All of the isolates were stored at −80 °C and streaked on tryptic soy agar (TSA) plates to obtain overnight cultures. The MICs of the test compounds were determined by the broth microdilution method in accordance with the Clinical and Laboratory Standards Institute (CLSI) guidelines.[20] Cation-adjusted Mueller-Hinton broth (CAMHB) was used as the growth medium for MIC assays. Briefly, 100 μL of serially diluted compounds (starting concentrations were 64 μg/mL) in CAMH broth were added to the wells of 96-well microtiter plates. Then, 10 µL of 5 × 10^6 CFU/mL bacterial culture was added to each well. […] The MIC was defined as the lowest concentration of a compound that inhibited visual growth of the bacteria. Vancomycin was set as the positive control for this assay.

A further data set has as its system MRSA/VISA strains. In words: MIC by broth microdilution, MRSA and VISA panel. The format is cell-based, S. aureus. The settings on record: Staphylococcus aureus, ATCC 33591 / ATCC 43300 / ATCC 700699 / MRSA / VISA, read-out: MICs for MRSA and VISA strains. The method, then: as §2
On the technique in general: Dilution methods test growth across graded concentrations, often in twofold steps.

The test system of data set [4] is methicillin-sensitive S. aureus (MSSA). In words: MIC by broth microdilution, MSSA isolates. The format is cell-based. The settings on record: Staphylococcus aureus. The method, then:
as §2

For data set [5], the system named is methicillin-resistant S. aureus (MRSA). In words: MIC by broth microdilution, MRSA strains. The format is cell-based. To be noted: Staphylococcus aureus. The method, then:
as §2

Data set [6] is described as follows: Mouse microsomal stability assay. The format is in vitro ADME. To be noted: pH 7.4; mouse liver microsomes, NADPH; read-out: In vitro metabolic stability t1/2 (min) in liver microsomes. The method, then:
The mouse liver microsomes were purchased from BioreclamationIVT and stored at −80 °C. The working solutions (0.2 mM) of the control compound, i.e. dextromethorphan, and the test compound dissolved in DMSO were prepared. Terfenadine (5 ng/mL) and tolbutamide (10 ng/mL) dissolved in acetonitrile were used as two quenching solutions. NADPH was dissolved in the phosphate buffer (50 mM K2HPO4, pH 7.4) at 5 mM. The mouse liver microsomes were thawed at 37 °C. The concentration of the stock solution was 20 mg/mL. The working solution (0.629 mg/mL) was prepared by dilution in phosphate buffer.
The working solution of the control/test compound (1.5 µL) was mixed with the liver microsome working solution (238.5 µL) in a 96-well plate and pre-incubated at 37 °C for 5 min. The 5 mM NADPH working solution (60 µL) was added to the solution to initiate the metabolic reaction. At each time point (0, 5, 15, 30, and 60 for the control/test compound), 30 µL of the reaction mixture was sampled and moved to 300 µL of quenching solutions. When the sampling was done, each sample was centrifuged at 4000 rpm at 4 °C for 15 min. The supernatant was analysed with the same HPLC system as the plasma stability assay. The residues (%) of the test/control compound along with the incubation time were calculated based on which the half-life (t1/2) value was determined.
(In general: Liver microsomes are a subcellular fraction often used to study metabolism.)

Another data set in a line: in vitro. The format is in vitro ADME, mouse. The settings on record: mouse plasma, 37 °C; read-out: In vitro metabolic stability t1/2 (min) in plasma. The method, then: The mouse plasma was purchased from Charles River and stored at −20 °C. The stock solution of the test compound dissolved in DMSO (50 mM) was prepared and diluted to obtain a working solution at the concentration of 0.2 mM. The working solution of the control compound, i.e. propantheline, was similarly prepared (0.2 mM). Terfenadine (5 ng/mL) and tolbutamide (10 ng/mL) dissolved in acetonitrile were used as two quenching solutions.
The mouse plasma was pre-warmed at 37 °C for 15 min. The working solution of the test/control compound (2 µL) was then added to the mouse plasma (398 µL) in a 96-well plate. Next, 30 µL of the reaction mixture was sampled and moved to 300 µL of quenching solutions at each time point: 0, 5, 15, 30, 60, and 120 min for the control compound and 0, 15, 30, 60, and 120 min for the test compound. When the sampling was done, each sample was centrifuged at 4000 rpm at 4 °C for 15 min. Then, 100 µL of the supernatant was removed and mixed with 100 µL of distilled water for LC-MS/MS analysis with Shimadzu HPLC system and the AB Sciex API 4000 QTRAP instrument. The remaining compound (%) after incubation in plasma versus the incubation time was plotted. The half-life (t1/2) value of the compound was determined via linear regression from the plot.

As for `CCc1[nH]c(C(=O)NC2CCN(c3nnc(C(C)(C)O)s3)CC2OC)nc1Cl` (stereo not drawn) [DS-2969b], on S. aureus DNA gyrase, the “S. aureus DNA gyrase IC50” value was 0.14 µg/mL.
`CC(=O)O[C@H]1C(=O)[C@@]2(C)[C@H]([C@H](OC(=O)c3ccccc3)[C@]3(O)C[C@H](OC(=O)[C@H](O)[C@@H](NC(=O)c4ccccc4)c4ccccc4)C(C)=C1C3(C)C)[C@]1(OC(C)=O)CO[C@@H]1C[C@@H]2O` [Paclitaxel, reference compound]: the CC50 (commonly the concentration giving 50% cytotoxicity) at 72 h in [1] stood at 12.7 nM; in data set [2] it was 1.7 nM.
As to `CN[C@H](CC(C)C)C(=O)N[C@H]1C(=O)N[C@@H](CC(N)=O)C(=O)N[C@H]2C(=O)N[C@H]3C(=O)N[C@H](C(=O)N[C@H](C(=O)O)c4cc(O)cc(O)c4-c4cc3ccc4O)[C@H](O)c3ccc(c(Cl)c3)Oc3cc2cc(c3O[C@@H]2O[C@H](CO)[C@@H](O)[C@H](O)[C@H]2O[C@H]2C[C@](C)(N)[C@H](O)[C@H](C)O2)Oc2ccc(cc2Cl)[C@H]1O` [Vancomycin, reference compound], the MIC was 4 µg/mL (≈ 2.76 µM) in [3] (Staphylococcus aureus, ATCC 700699 / VISA); 4 µg/mL (≈ 2.76 µM) in [3] (Staphylococcus aureus, VISA); 4.0 µg/mL (≈ 2.76 µM) in data set [3] (VISA HIP 5827); 0.5 to 4 µg/mL (≈ 0.345 to 2.76 µM) with MRSA/VISA strains; 0.5 to 1 µg/mL (≈ 0.345 to 0.69 µM) in data set [4] (ATCC 29213 / BAA-1708 / BAA-976 / MSSA, read-out: MIC over the five MSSA isolates, ATCC 29213, 15, 18-3, BAA976, BAA1708, span over isolates); 1 µg/mL (≈ 0.69 µM) in data set [4] (ATCC 29213 / MSSA, MSSA ATCC 29213). Also, the MIC in [4] (BAA-976 / MSSA, MSSA BAA976) was 0.5 µg/mL (≈ 0.345 µM); in [4] (BAA-1708 / MSSA, MSSA BAA1708), 1 µg/mL (≈ 0.69 µM); in data set [4] (MSSA, MSSA 15), 1 µg/mL (≈ 0.69 µM); in data set [4] (MSSA, MSSA 18-3) it was 0.5 µg/mL (≈ 0.345 µM); in data set [5] (ATCC 33591 / MRSA), 2 µg/mL (≈ 1.38 µM); in data set [5] (ATCC 43300 / MRSA), 1 µg/mL (≈ 0.69 µM). Further, the MIC in data set [5] (MRSA) turned out to be 0.5 µg/mL (≈ 0.345 µM).
Take `COc1ccc2c(c1)[C@]13CCCC[C@@H]1[C@H](C2)N(C)CC3` [dextromethorphan, reference compound]: the half-life at 1 µM in data set [6] worked out at 16 min.
For `CC(C)[N+](C)(CCOC(=O)C1c2ccccc2Oc2ccccc21)C(C)C` [propantheline, reference compound], the half-life at 1 µM in the data set “in vitro” was determined as 66.3 min.
